Where a name gives a salt, the structure may show the parent alone.

In the test the target is T1, human 5HT2A receptor (Homo sapiens, UniProt P28223).
T1 construct: expressed in transfected cells
T1 sequence (P28223 whole entry): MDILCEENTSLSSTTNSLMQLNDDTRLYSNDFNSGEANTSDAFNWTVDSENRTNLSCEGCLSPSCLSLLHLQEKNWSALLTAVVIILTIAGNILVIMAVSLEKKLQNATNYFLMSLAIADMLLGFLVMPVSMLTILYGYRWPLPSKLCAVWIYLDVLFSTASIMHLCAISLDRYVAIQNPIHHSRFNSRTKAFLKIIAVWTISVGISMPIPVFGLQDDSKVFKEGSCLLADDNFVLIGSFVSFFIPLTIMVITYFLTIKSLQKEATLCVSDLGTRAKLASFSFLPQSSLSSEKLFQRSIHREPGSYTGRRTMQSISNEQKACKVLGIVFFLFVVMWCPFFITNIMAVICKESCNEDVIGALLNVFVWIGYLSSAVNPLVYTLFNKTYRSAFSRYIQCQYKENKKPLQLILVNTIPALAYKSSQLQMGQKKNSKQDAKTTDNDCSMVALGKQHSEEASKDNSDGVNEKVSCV
Kind of test: Receptor Binding Assay, 5HT2A ([3H]N-methyl spiperone). Conditions: BHK cells expressing human 5HT2A receptor, 2.5 nM [3H]N-methyl spiperone, 37° C. How it is done:
Cell Culture: BHK cells stably expressing the human 5HT2A receptor were maintained in Dulbecco's Modified Eagle's Medium supplemented with […] Geneticin, 1% Sodium Pyruvate, 1% Pen-Strep and 10% Fetal Calf Serum, and treated with 5 mM sodium butyrate for 24 h to increase receptor expression before harvesting. Cells were harvested by mechanical scraping, washed with Phosphate Buffered Saline, and stored at −80° C. in 10% DMSO in 1 mg/mil aliquots until used. Protein determination was made according to Lowry.
Receptor Binding Assays: The 5HT2A and D2L assays were conducted at 37° C. in a Tris buffer containing salts (50 mM Tris Buffer, pH 7.7; 120 mM NaCl; 5 mM KCl; 2 mM CaCl2; 1 mM MgCl2). Cell membranes (previously prepared and frozen) were rapidly thawed. Membranes were diluted to an appropriate concentration (to produce 100 μg protein/assay point for 5HT2A, and 58 μg protein/assay point for D2L) in Tris buffer and homogenized. Assays were conducted on 96-well plates, using 2.5 and 1 nM [^3H]N-methyl spiperone as radioligand for 5HT2A and D2L assays, respectively. Plates were incubated at 37° C. in a shaking water bath for 30 and 60 min, for 5HT2A and D2L, respectively. Nonspecific binding was defined using 100 μM methylsergide and eticlopride, for 5HT2A and D2L, respectively.
Assays were terminated by rapid filtration through Millipore MAFB or MAFC (5HT2C) filter plates (presoaked in 50 mM Tris HCl, pH 7.7, with 0.1% Brij) using a Millipore Cell Harvester. The filter plates were then washed with ice-cold 50 mM Tris buffer, pH 7.7, and allowed to dry overnight. 50 μl of Microscint scintillation cocktail were added and the plates were counted in a Packard Topcount scintillation counter.
IC50 and Ki calculations were performed using nonlinear regression one-site competition analysis (GraphPad, Prism), with top and bottom limits held constant at 0% and 100% inhibition, respectively. The percent inhibition at each drug concentration was the average of duplicate determinations. Except where indicated, each determination was performed 2 to 5 times.
`CN(C)CCN(Cc1cncc(-c2ccc3[nH]ccc3c2)c1)C(=O)c1ccc(F)cc1` [Example 74, N-(2-Dimethylamino-ethyl)-4-fluoro-N-[5-(1H-indol-5-yl)-pyridin-3-ylmethyl]-benzamide trifluoroacetate]: the Ki is 1.05 nM. The value for `O=C(c1ccc(F)cc1)N(CCN1CCCC1)Cc1ccc(-c2ccc3[nH]ccc3c2)s1` [Example 75] was 2.14 nM; that for `CN1CCC(N(Cc2cc(-c3ccc4[nH]ccc4c3)co2)C(=O)c2ccc(F)cc2)CC1` [Example 76] was 4.74 nM; that for `O=C(c1ccc(F)cc1)N(Cc1cc(-c2ccc3[nH]ccc3c2)ccc1F)[C@H]1CN2CCC1CC2` [Example 77, N-(1-Aza-bicyclo[2.2.2]oct-3R-yl)-4-fluoro-N-[2-fluoro-5-(1H-indol-6-yl)-benzyl]-benzamide] was 0.49 nM. Then `O=C(c1ccc(F)cc1)N(Cc1cc(-c2ccc3[nH]c(=O)oc3c2)ccc1F)C1CN2CCC1CC2` (stereo not shown) [Example 78], with 0.76 nM. The value for `O=C(c1ccc(F)cc1)N(Cc1cc(-c2ccc3[nH]c(=O)oc3c2)ccc1F)[C@H]1CN2CCC1CC2` [Example 79] was 0.61 nM; that for `Fc1ccc(CN(Cc2cc(-c3ccc4[nH]nnc4c3)ccc2F)C[C@H]2CCCN2)cc1` [Example 80, [5-(1H-Benzothiazol-5-yl)-2-fluoro-benzyl]-(4-fluoro-benzyl)-pyrrolidin-2R-ylmethyl-amine trihydrochloride] was 14.9 nM; that for `Fc1ccc(CN(Cc2cc(-c3ccc4[nH]ncc4c3)ccc2F)C[C@@H]2CCCN2)cc1` [Example 81] was 2 nM.

`Fc1ccc(CN(Cc2cc(-c3ccc4[nH]ncc4c3)ccc2F)C2CCNCC2)cc1` [Example 82]: the affinity, expressed as Ki, was 0.51 nM.

`CNCCN(Cc1ccc(F)cc1)Cc1cc(-c2ccc3[nH]ncc3c2)ccc1F` [Example 83, N-(4-Fluoro-benzyl)-N-[2-fluoro-5-(1H-indazol-5-yl)-benzyl]-N′-methyl-ethane-1,2-diamine] showed a Ki of 0.82 nM. As for `Fc1ccc(-c2ccc3[nH]nnc3c2)cc1CN(Cc1cccs1)C1CCNCC1` [Example 84, [5-(1H-Benzotriazol-5-yl)-2-fluoro-benzyl]-piperidin-4-yl-thiophen-2-ylmethyl-amine], the Ki was 0.37 nM. Consider `Fc1ccc(CN(Cc2cc(-c3ccc4[nH]nnc4c3)ccc2F)C2CCNCC2)cc1` [Example 85, [5-(1H-Benzotriazol-5-yl)-2-fluoro-benzyl]-(4-fluoro-benzyl)-piperidin-4-yl-amine], for which the Ki is 0.42 nM. Compound `CNCCN(Cc1ccc(F)cc1)Cc1cc(-c2ccc3[nH]nnc3c2)ccc1F` [Example 86, N-[5-(1H-Benzotriazol-5-yl)-2-fluoro-benzyl]-N-(4-fluoro-benzyl)-N′-methyl-ethane-1,2-diamine] came in with a Ki of 1.68 nM. Regarding `CCN1CCC[C@H]1CN(Cc1ccc(F)cc1)Cc1cc(-c2ccc3[nH]nnc3c2)ccc1F` [Example 87, [5-(1H-Benzotriazol-5-yl)-2-fluoro-benzyl]-(1-ethyl-pyrrolidin-2S-ylmethyl)-(4-fluoro-benzyl)-amine hydrochloride], the Ki was 14.2 nM. For `CN1CCC(N(Cc2ccc(F)cc2)Cc2cc(-c3ccc4[nH]nnc4c3)ccc2F)CC1` [Example 88, [5-(1H-Benzotriazol-5-yl)-2-fluoro-benzyl]-(4-fluoro-benzyl)-(1-methyl-piperidin-4-yl)-amine hydrochloride], the Ki was 1.16 nM. Take `CN1CCC(N(Cc2ccc(F)cc2)Cc2cc(-c3ccc4[nH]c(=O)oc4c3)ccc2F)CC1` [Example 89, 6-(4-Fluoro-3-{[(4-fluoro-benzyl)-(1-methyl-piperidin-4-yl)-amino]-methyl}-phenyl)-3H-benzooxazol-2-one]: the Ki is 1 nM.

In turn, `CN1CCC(N(Cc2ccc(F)cc2)Cc2cc(-c3ccc4[nH]ncc4c3)ccc2F)CC1` [Example 90, (4-Fluoro-benzyl)-[2-fluoro-5-(1H-indazol-5-yl)-benzyl]-(1-methyl-piperidin-4-yl)-amine] showed a Ki of 0.42 nM. Then `CN1CCN(Cc2cc(-c3ccc4[nH]ccc4c3)ccc2F)C(c2ccco2)C1` (stereo not shown) [Example 93, 5-[4-Fluoro-3-(2-furan-2-yl-4-methyl-piperazin-1-ylmethyl)-phenyl]-1H-indole], with 0.6 nM; and `CN1CCN(Cc2cc(-c3ccc4[nH]ncc4c3)ccc2F)[C@@H](c2ccc(F)cc2)C1` [Example 96, 5-{4-Fluoro-3-[2S-(4-fluoro-phenyl)-4-methyl-piperazin-1-ylmethyl]-phenyl}-1H-indazole], with 0.89 nM; and `CN1CCN(Cc2cc(-c3ccc4[nH]c(=O)oc4c3)ccc2F)[C@@H](c2ccc(F)cc2)C1` [Example 97, 6-{4-Fluoro-3-[2S-(4-fluoro-phenyl)-4-methyl-piperazin-1-ylmethyl]-phenyl}-3H-benzooxazol-2-one], with 0.77 nM. The compound `CN1CCN(Cc2cncc(-c3ccc4[nH]ncc4c3)c2)[C@@H](c2ccc(F)cc2)C1` [Example 99, 5-{5-[2S-(4-Fluoro-phenyl)-4-methyl-piperazin-1-ylmethyl]-pyridin-3-yl}-1H-indazole] returned a Ki of 0.29 nM. Then `O=C(c1ccc(F)cc1)N(CCCN1CCCC1)Cc1cc(-c2ccc3[nH]ncc3c2)ccc1F` [Example 100, 4-Fluoro-N-[2-fluoro-5-(1H-indazol-5-yl)-benzyl]-N-(3-pyrrolidin-1-yl-propyl)-benzamide], with 0.6 nM; and `O=C(c1ccc(F)cc1)N(CCN1CCCC1)Cc1cc(-c2ccc3[nH]nnc3c2)ccc1F` [Example 101, N-[5-(1H-Benzotriazol-5-yl)-2-fluoro-benzyl]-4-fluoro-N-(2-pyrrolidin-1-yl-ethyl)-benzamide], with 0.39 nM. The compound `CN1CCC(N(Cc2cc(-c3ccc4[nH]ncc4c3)ccc2F)C(=O)c2ccc(F)cc2)CC1` [Example 102, 4-Fluoro-N-[2-fluoro-5-(1H-indazol-5-yl)-benzyl]-N-(1-methyl-piperidin-4-yl)-benzamide] displayed a Ki of 0.88 nM. The value for `O=C(c1ccc(F)cc1)N(Cc1cc(-c2ccc3[nH]ncc3c2)ccc1F)[C@H]1CN2CCC1CC2` [Example 103, N-(1-Aza-bicyclo[2.2.2]oct-3R-yl)-4-fluoro-N-[2-fluoro-5-(1H-indazol-5-yl)-benzyl]-benzamide] was 1.01 nM; that for `CN1CCC(N(Cc2cc(-c3ccc4[nH]ccc4c3)ccc2F)C(=O)c2ccncn2)CC1` [Example 105, Pyrimidine-4-carboxylic acid [2-fluoro-5-(1H-indol-5-yl)-benzyl]-(1-methyl-piperidin-4-yl)-amide] was 3.8 nM; that for `CN1CCC(N(Cc2cc(-c3ccc4[nH]ccc4c3)ccc2F)C(=O)c2cccnn2)CC1` [Example 106, Pyridazine-3-carboxylic acid [2-fluoro-5-(1H-indol-5-yl)-benzyl]-(1-methyl-piperidin-4-yl)-amide] was 9 nM. Then `CN1CCC(N(Cc2cc(-c3ccc4[nH]ccc4c3)ccc2F)C(=O)c2ccnnc2)CC1` [Example 107, Pyridazine-4-carboxylic acid [2-fluoro-5-(1H-indol-5-yl)-benzyl]-(1-methyl-piperidin-4-yl)-amide], with 85 nM; and `CN1CCC(N(Cc2cc(-c3ccc4[nH]ccc4c3)ccc2F)C(=O)c2ncccn2)CC1` [Example 108, Pyrimidine-2-carboxylic acid [2-fluoro-5-(1H-indol-5-yl)-benzyl]-(1-methyl-piperidin-4-yl)-amide], with 16 nM.

Turning to `CC(C)Oc1ccc(C(=O)N(Cc2cc(-c3ccc4[nH]ccc4c3)ccc2F)C2CCN(C)CC2)cc1` [Example 110, N-[2-Fluoro-5-(1H-indol-5-yl)-benzyl]-4-isopropoxy-N-(1-methyl-piperidin-4-yl)-benzamide], the Ki was determined as 85 nM. Then `CC(C)Oc1cccc(C(=O)N(Cc2cc(-c3ccc4[nH]ccc4c3)ccc2F)C2CCN(C)CC2)c1` [Example 111, N-[2-Fluoro-5-(1H-indol-5-yl)-benzyl]-3-isopropoxy-N-(1-methyl-piperidin-4-yl)-benzamide], with 85 nM; and `CN1CCC(N(Cc2cc(-c3ccc4[nH]ccc4c3)ccc2F)C(=O)c2ccc(OC(F)(F)F)cc2)CC1` [Example 112, N-[2-Fluoro-5-(1H-indol-5-yl)-benzyl]-N-(1-methyl-piperidin-4-yl)-4-trifluoromethoxy-benzamide], with 6 nM.

As for `Fc1ccc([C@H]2CNCCN2Cc2cncc(-c3ccc4[nH]ncc4c3)c2)cc1` [Example 113, 5-{5-[2S-(4-Fluoro-phenyl)-piperazin-1-ylmethyl]-pyridin-3-yl}-1H-indazole], the Ki is 0.4 nM.

In the case of `Fc1ccc([C@H]2CNCCN2Cc2cncc(-c3ccc4[nH]ccc4c3)c2)cc1` [Example 114, 5-{5-[2S-(4-Fluoro-phenyl)-piperazin-1-ylmethyl]-pyridin-3-yl}-1H-indole acetate], the Ki stood at 0.48 nM.

The term Ki denotes the dissociation constant of the complex between target and ligand, obtained from inhibition or displacement.

The values are drawn from patent US7625889B2, “Substituted bis aryl and heteroaryl compounds as selective 5HT2A antagonists” (Aventis Pharmaceuticals Inc., priority 2005, dated 2009).
